Like-named read-outs stand apart in the source and are kept apart here.
What was measured:
[1] = molecular target: T1, AmtB (Escherichia coli, UniProt P69681); assay: Native MS lipid titration, lipid binding to AmtB (equilibrium-coupled binding model); conditions: 50 µM ADP, 298 K
T1 construct: pelB signal peptide (N, cleaved yes); 10x His-tag (N, cleaved yes); made in house; host or cells: Escherichia coli C41(DE3), pET15b
Procedure: (§1) A stock of ADP was prepared by dissolving the ammonium salt form of ADP in water followed by adjusting the pH with ammonium hydroxide to 7.0. Serial dilutions into MS buffer (200 mM ammonium acetate, 0.5% C8E4, and pH adjusted to 7.4 with ammonium hydroxide) supplemented with 5 mM BME was performed to prepare ADP at certain concentrations. Phospholipids were prepared as previously described. In brief, stock solutions of each phospholipid were resuspended in chloroform, aliqouted, and chloroform was removed by a steady stream on nitrogen gas. Lipid films were placed under vacuum overnight to prepare to resuspend in MS buffer supplemented with 5 mM 2-mercaptoethanol. Phospholipid concentration was determined by phosphorus analysis.

[2] = molecular target: T2, AmtB–GlnK complex (Escherichia coli, UniProt P69681); assay: Native MS lipid titration, lipid binding to AmtB–GlnK (equilibrium-coupled binding model); conditions: 50 µM ADP, 298 K
T2 construct: pelB signal peptide (N, cleaved yes); 10x His-tag (N, cleaved yes); made in house; host or cells: AmtB: Escherichia coli C41(DE3), pET15b; stGlnK: Escherichia coli ArcticExpress (DE3) RIL, pET28b
T2 sequence (P0AC55 whole entry Y51F): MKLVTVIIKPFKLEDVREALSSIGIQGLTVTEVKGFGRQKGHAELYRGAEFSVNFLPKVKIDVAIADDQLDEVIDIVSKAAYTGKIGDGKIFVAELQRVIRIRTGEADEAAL
T2 sequence (P69681 23-428): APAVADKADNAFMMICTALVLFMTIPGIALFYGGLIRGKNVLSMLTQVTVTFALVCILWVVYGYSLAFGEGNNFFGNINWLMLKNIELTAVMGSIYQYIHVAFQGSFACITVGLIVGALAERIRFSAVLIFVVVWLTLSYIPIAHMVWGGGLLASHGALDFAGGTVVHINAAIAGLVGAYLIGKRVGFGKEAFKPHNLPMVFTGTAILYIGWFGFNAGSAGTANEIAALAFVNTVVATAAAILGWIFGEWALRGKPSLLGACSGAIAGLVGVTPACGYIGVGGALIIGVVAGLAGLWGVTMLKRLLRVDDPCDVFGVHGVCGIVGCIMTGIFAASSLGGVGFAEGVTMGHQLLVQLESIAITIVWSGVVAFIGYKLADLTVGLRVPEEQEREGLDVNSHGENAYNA
Procedure: as §1

[3] = molecular target: T3, AmtB–GlnK interaction (Escherichia coli, UniProt P69681); assay: Native MS lipid titration, GlnK binding to apo or lipid-bound AmtB; coupling factors (allosteric modulation); conditions: for Kd: 50 µM ADP, 298 K; for Coupling factor a1: first bound lipid; for Coupling factor a2: second bound lipid; for Coupling factor a3: third bound lipid; for increase in the coupling factor per lipid-binding event: linear fit to the coupling factors as a function of bound lipid; for allosteric modulation of AmtB–GlnK (from coupling factors) / effect of lipid-binding events on K D,ALnG: result in words
T3 construct: pelB signal peptide (N, cleaved yes); 10x His-tag (N, cleaved yes); made in house; host or cells: AmtB: Escherichia coli C41(DE3), pET15b; stGlnK: Escherichia coli ArcticExpress (DE3) RIL, pET28b
T3 sequence (P0AC55 whole entry Y51F): as the sequence (P0AC55 whole entry Y51F) above
T3 sequence (P69681 23-428): as the sequence (P69681 23-428) above
Procedure: as §1

[4] = molecular target: GlnK; parameters: method as in earlier work; conditions: 298K, absence of detergent, ref 2 (supplement), cited from earlier work
[5] = KD,AL1, first lipid binding to AmtB
[6] = KD,AL2, second lipid binding to AmtB
[7] = KD,AL3, third lipid binding to AmtB
[8] = KD,AGL1, first lipid binding to AmtB–GlnK
[9] = KD,AGL2, second lipid binding to AmtB–GlnK
[10] = KD,AGL3, third lipid binding to AmtB–GlnK
[11] = KD,AG, GlnK binding apo AmtB, from global fit of the titration with the named lipid
[12] = KD,AL2G, GlnK binding AmtB bound to 2 lipids
[13] = KD,AL3G, GlnK binding AmtB bound to 3 lipids
[14] = KD,ALG, GlnK binding AmtB bound to 1 lipid

T1 sequence (P69681 23-428): as above

| SMILES | Kd [1, 5] | Kd [1, 6] | Kd [1, 7] | Kd [2, 8] | Kd [2, 9] | Kd [2, 10] | Kd [3, 11] | Kd [3, 12] | Kd [3, 13] | Kd [3, 14] | Coupling factor a1 [3] | Coupling factor a2 [3] | Coupling factor a3 [3] | allosteric modulation of AmtB–GlnK (from coupling factors) [3] | effect of lipid-binding events on K D,ALnG [3] | further results |
| --- | --- | --- | --- | --- | --- | --- | --- | --- | --- | --- | --- | --- | --- | --- | --- | --- |
| CCCCCCCCCCCC(=O)OC[C@H](COP(=O)(O)OCC(O)CO)OC(=O)CCCCCCCCCCC (some centres unmarked) [DLPG] | 22.5 ± 3.23 µM | 39.1 ± 9.25 µM | 34.03 ± 0.15 µM | 17.1 ± 1.96 µM | 28.6 ± 3.98 µM | 29.1 ± 2.27 µM | 0.522 ± 0.0258 µM | 0.313 ± 0.0435 µM | 0.271 ± 0.0539 µM | 0.401 ± 0.0148 µM | 1.30 ± 0.04 | 1.35 ± 0.26 | 1.19 ± 0.15 | – | – | – |
| CCCCCCCC/C=C\CCCCCCCC(=O)O[C@H](COC(=O)CCCCCCCCCCCCCCC)COP(=O)(O)OCCN [POPE] | 21.1 ± 0.27 µM | 55.3 ± 9.22 µM | 96.2 ± 27 µM | 16.3 ± 0.4 µM | 33.6 ± 1.24 µM | 47.7 ± 7.02 µM | 0.504 ± 0.0616 µM | 0.245 ± 0.0372 µM | 0.137 ± 0.0482 µM | 0.391 ± 0.0593 µM | 1.30 ± 0.04 | 1.63 ± 0.24 | 2.04 ± 0.37 | positive allosteric modulation | decrease in K D,ALnG with each consecutive binding event | increase in the coupling factor per lipid-binding event [3]: 0.4 |
| CCCCCCCCCCCCCCCC(=O)OC[C@H](COP(=O)(O)OCC(O)CO)OC(=O)CCCCCCCCCCCCCCC (some centres unmarked) [DPPG] | 18.5 ± 1.85 µM | 63.8 ± 13.2 µM | 99.8 ± 45.3 µM | 14.8 ± 0.64 µM | 31.7 ± 1.89 µM | 53.4 ± 16.6 µM | 0.521 ± 0.0158 µM | 0.23 ± 0.0559 µM | 0.164 ± 0.0721 µM | 0.424 ± 0.0361 µM | 1.25 ± 0.10 | 1.98 ± 0.32 | 1.66 ± 0.33 | – | – | – |
| CCCCCCCC/C=C\CCCCCCCC(=O)O[C@H](COC(=O)CCCCCCCCCCCCCCC)COP(=O)(O)O [POPA] | 8.11 ± 0.41 µM | 18.1 ± 1.18 µM | 24.7 ± 2.44 µM | 10 ± 0.31 µM | 19.8 ± 0.58 µM | 26.2 ± 2.19 µM | 0.517 ± 0.0463 µM | 0.707 ± 0.0945 µM | 0.75 ± 0.0992 µM | 0.644 ± 0.0735 µM | 0.81 ± 0.02 | 0.92 ± 0.04 | 0.94 ± 0.04 | slight negative allosteric modulation | each binding event weakening the molecular interaction between AmtB and GlnK | – |
| CCCCCCCC/C=C\CCCCCCCC(=O)O[C@H](COC(=O)CCCCCCCCCCCCCCC)COP(=O)(O)OC[C@H](N)C(=O)O [POPS] | 10.5 ± 0.97 µM | 21.8 ± 1.97 µM | 30.4 ± 4.97 µM | 9.18 ± 0.6 µM | 19.9 ± 0.36 µM | 26.7 ± 1.82 µM | 0.499 ± 0.0347 µM | 0.405 ± 0.0395 µM | 0.363 ± 0.0372 µM | 0.446 ± 0.0644 µM | 1.15 ± 0.09 | 1.09 ± 0.08 | 1.13 ± 0.10 | neutral allosteric modulation | little effect on K D,ALnG | – |
| CCCCCCCC/C=C\CCCCCCCC(=O)O[C@H](COC(=O)CCCCCCCCCCCCCCCCC)COP(=O)(O)OCCN [SOPE] | 16.4 ± 1.39 µM | 46.6 ± 9.46 µM | 73.6 ± 22 µM | 14.5 ± 1.28 µM | 2.85 ± 2.32 µM | 45.2 ± 7.56 µM | 0.528 ± 0.0448 µM | 0.321 ± 0.0944 µM | 0.215 ± 0.0607 µM | 0.482 ± 0.0919 µM | 1.16 ± 0.19 | 1.60 ± 0.19 | 1.57 ± 0.25 | – | – | – |
| CCCCCCCC/C=C\CCCCCCCC(=O)OC[C@H](COP(=O)(O)OCCN)OC(=O)CCCCCCC/C=C\CCCCCCCC [DOPE (cis)] | 15.1 ± 0.63 µM | 36.9 ± 2.85 µM | 57.6 ± 13.3 µM | 12.3 ± 0.39 µM | 27.6 ± 1.09 µM | 32.9 ± 2.11 µM | 0.517 ± 0.0504 µM | 0.315 ± 0.0269 µM | 0.206 ± 0.0621 µM | 0.421 ± 0.0375 µM | 1.23 ± 0.02 | 1.34 ± 0.10 | 1.71 ± 0.31 | – | – | – |
| CCCCCCCCCCCCCC(=O)OC[C@H](COP(=O)(O)OCC(O)CO)OC(=O)CCCCCCCCCCCCC (some centres unmarked) [DMPG] | 6.78 ± 0.19 µM | 14.6 ± 1.2 µM | 20.27 ± 0.12 µM | 6.92 ± 0.33 µM | 14.1 ± 0.35 µM | 19.6 ± 0.33 µM | 0.551 ± 0.0134 µM | 0.543 ± 0.0387 µM | 0.523 ± 0.0284 µM | 0.561 ± 0.0235 µM | 0.99 ± 0.05 | 1.04 ± 0.04 | 1.04 ± 0.02 | neutral allosteric modulation | – | – |
| CCCCCCCC/C=C\CCCCCCCC(=O)O[C@H](COC(=O)CCCCCCCCCCCCCCC)COP(=O)([O-])OCC[N+](C)(C)C [POPC] | 29.2 ± 5.99 µM | 68.3 ± 4.81 µM | 104 ± 7.56 µM | 18.9 ± 1.36 µM | 40.3 ± 3.92 µM | 59.5 ± 17.9 µM | 0.486 ± 0.0325 µM | 0.192 ± 0.0112 µM | – | 0.345 ± 0.0822 µM | 1.52 ± 0.23 | 1.76 ± 0.31 | 2.50 ± 0.80 | – | decrease in K D,ALnG with each consecutive binding event | – |
| CCCCCCCC/C=C/CCCCCCCC(=O)OC[C@H](COP(=O)(O)OCCN)OC(=O)CCCCCCC/C=C/CCCCCCCC [DOPE (trans)] | 29.7 ± 2.18 µM | 159 ± 57.3 µM | – | 19 ± 0.42 µM | 46 µM | – | 0.556 ± 0.0327 µM | 0.121 ± 0.0256 µM | – | 0.356 ± 0.0141 µM | 1.57 ± 0.14 | 3.29 ± 0.82 | 5.28 ± 1.82 | greater positive allosteric modulation | – | – |
| CCCCCCCC/C=C\CCCCCCCC(=O)OC[C@H](COP(=O)(O)OCC(O)COP(=O)(O)OC[C@@H](COC(=O)CCCCCCC/C=C\CCCCCCCC)OC(=O)CCCCCCC/C=C\CCCCCCCC)OC(=O)CCCCCCC/C=C\CCCCCCCC (some centres unmarked) [TOCDL, 1,1′,2,2′-tetraoleoyl-cardiolipin] | – | – | – | – | – | – | – | – | – | – | 1.17 ± 0.09 | 1.03 ± 0.06 | 1.11 ± 0.15 | neutral allosteric modulation | little effect on K D,ALnG | Kd ([1]; read-out: KD,AL1, first lipid binding to AmtB): 19.9 ± 1.65 µM; Kd ([1]; read-out: KD,AL2, second lipid binding to AmtB): 30.2 ± 2.05 µM; Kd ([1]; read-out: KD,AL3, third lipid binding to AmtB): 33.1 ± 6.01 µM; Kd ([2]; read-out: KD,AGL1, first lipid binding to AmtB–GlnK): 17 ± 0.17 µM; Kd ([2]; read-out: KD,AGL2, second lipid binding to AmtB–GlnK): 29.3 ± 1.42 µM; Kd ([2]; read-out: KD,AGL3, third lipid binding to AmtB–GlnK): 29.5 ± 1.68 µM; Kd ([3]; read-out: KD,AG, GlnK binding apo AmtB, from global fit of the titration with the named lipid): 0.517 ± 0.0312 µM; Kd ([3]; read-out: KD,AL2G, GlnK binding AmtB bound to 2 lipids): 0.443 ± 0.0689 µM; Kd ([3]; read-out: KD,AL3G, GlnK binding AmtB bound to 3 lipids): 0.414 ± 0.0776 µM; Kd ([3]; read-out: KD,ALG, GlnK binding AmtB bound to 1 lipid): 0.45 ± 0.0561 µM |
| Nc1ncnc2c1ncn2[C@@H]1O[C@H](COP(=O)(O)OP(=O)(O)O)[C@@H](O)[C@H]1O [ADP, adenosine diphosphate] | – | – | – | – | – | – | – | – | – | – | – | – | – | – | – | Kd ([4]; read-out: KD for GlnK binding the first ADP molecule): 20 µM; Kd ([4]; read-out: KD for GlnK binding the second ADP molecule): 56 µM; Kd ([4]; read-out: KD for GlnK binding the third ADP molecule): 100 µM |
| CCCCCCCC/C=C\CCCCCCCC(=O)O[C@H](COC(=O)CCCCCCCCCCCCCCC)COP(=O)(O)OCC(O)CO (some centres unmarked) [POPG] | 13.5 ± 0.73 µM | 33.3 ± 6.39 µM | 56.7 ± 11.8 µM | 12.04 ± 0.06 µM | 25.4 ± 1.11 µM | 34.3 ± 3.4 µM | 0.54 ± 0.0267 µM | 0.396 ± 0.0754 µM | 0.313 ± 0.162 µM | 0.485 ± 0.0356 µM | 1.12 ± 0.06 | 1.30 ± 0.21 | 1.74 ± 0.46 | positive allosteric modulation | decrease in K D,ALnG with each consecutive binding event | increase in the coupling factor per lipid-binding event [3]: 0.3 |
